{
  "source": "patent US20100261662A1",
  "about": "“UTILIZATION OF MURAL THROMBUS FOR LOCAL DRUG DELIVERY INTO VASCULAR TISSUE” (ENDOLOGIX, INC., priority 2009, published 2010)",
  "key": {"[1]": {"tested_on": "collagen contained within the vascular tissue", "test": "Short-term application of catechin to vascular tissue", "details": "short-term (approximately 10-30 minute) application", "excerpt": "Catechin can be delivered in solution form into the mural thrombus. This delivery method pathway can be used, without limitation, when a short-acting application of a high-concentration of catechin is desired. […] In some embodiments, the concentration of the agent can be in the range from approximately 0.01% to approximately 20%, or between approximately 2.0% and approximately 10.0%, or to or from any values within these ranges."}, "[2]": {"tested_on": "skin collagen", "details": "rats treated with catechin; cited from earlier work"}},
  "data": [
    {"substance": "catechin", "values": [
      {"measurement": "stabilization of collagen in vascular tissue", "setting": "[1]", "result": "can stabilize the collagen"},
      {"measurement": "stability of skin collagen against enzymatic degradation", "setting": "[2]", "result": "stable against enzymatic degradation"}
    ]}
  ]
}
